US20250214991A1 (Oncopia Therapeutics, Inc. d/b/a/ SK Life Science Labs, priority 2022, published 2025)

Legend:
[1] = target: CRBN/DDB1 (Homo sapiens (Human), UniProt Q96SW2); experiment: IC50 measurements for binding to CRBN/DDB1 (HTRF); conditions: His tagged CRBN+DDB, Cy5-labeled Thalidomide probe, one hour
Method in brief: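 HTRF competition binding with 2 nM His-tagged CRBN-DDB1 complex, 60 nM Cy5-thalidomide probe and 0.4 nM anti-His Tb cryptate in 50 mM HEPES pH 7.5, 1 mM TCEP, 0.01% Brij-35, 50 mM NaCl, 0.1% BSA. Read after 1 h at room temperature; IC50 from four-parameter dose-response fit.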

[2] = target: IKZF2 (Homo sapiens (Human), UniProt Q96SW2+Q9UKS7); experiment: In vitro IKZF2 HiBit Assay (HEK293T Flp-in-HiBiT cells); assay type: cell-based; conditions: HEK293T Flp-in-HiBiT cells, 6 hrs incubation; for DC50: read-out: IKZF2 HiBit DC50; for Dmax: HEK-293T, read-out: IKZF2 HiBit Dmax (%)
Chain of IKZF2 (Q9UKS7 whole entry): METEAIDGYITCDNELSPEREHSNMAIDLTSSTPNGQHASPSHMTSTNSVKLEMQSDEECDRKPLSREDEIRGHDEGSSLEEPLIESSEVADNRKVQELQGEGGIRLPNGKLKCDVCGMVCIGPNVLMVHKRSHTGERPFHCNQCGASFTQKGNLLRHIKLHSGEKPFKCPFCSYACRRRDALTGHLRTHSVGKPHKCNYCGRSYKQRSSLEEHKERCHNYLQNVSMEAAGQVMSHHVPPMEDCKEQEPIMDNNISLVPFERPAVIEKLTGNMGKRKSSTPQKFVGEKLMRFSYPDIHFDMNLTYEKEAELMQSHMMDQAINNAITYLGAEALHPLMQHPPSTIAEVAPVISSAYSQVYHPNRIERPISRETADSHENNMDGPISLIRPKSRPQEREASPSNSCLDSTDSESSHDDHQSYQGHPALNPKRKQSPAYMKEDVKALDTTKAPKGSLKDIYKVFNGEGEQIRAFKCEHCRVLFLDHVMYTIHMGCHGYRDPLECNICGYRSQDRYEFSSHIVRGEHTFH
Chain of IKZF2 (Q96SW2 whole entry): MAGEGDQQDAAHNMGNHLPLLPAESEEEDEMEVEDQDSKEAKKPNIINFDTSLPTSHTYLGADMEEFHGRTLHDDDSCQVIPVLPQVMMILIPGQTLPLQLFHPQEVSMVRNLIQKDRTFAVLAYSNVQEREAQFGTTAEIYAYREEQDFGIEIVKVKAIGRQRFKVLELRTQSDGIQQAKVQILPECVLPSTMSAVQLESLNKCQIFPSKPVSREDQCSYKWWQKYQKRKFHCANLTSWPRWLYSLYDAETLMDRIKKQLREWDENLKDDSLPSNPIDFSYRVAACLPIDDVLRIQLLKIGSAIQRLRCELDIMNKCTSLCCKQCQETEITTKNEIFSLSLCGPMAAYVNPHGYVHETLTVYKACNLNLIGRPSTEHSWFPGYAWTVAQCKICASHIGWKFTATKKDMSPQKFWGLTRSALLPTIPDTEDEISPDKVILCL
Chain of IKZF2 (Q16531 2-1140 partner): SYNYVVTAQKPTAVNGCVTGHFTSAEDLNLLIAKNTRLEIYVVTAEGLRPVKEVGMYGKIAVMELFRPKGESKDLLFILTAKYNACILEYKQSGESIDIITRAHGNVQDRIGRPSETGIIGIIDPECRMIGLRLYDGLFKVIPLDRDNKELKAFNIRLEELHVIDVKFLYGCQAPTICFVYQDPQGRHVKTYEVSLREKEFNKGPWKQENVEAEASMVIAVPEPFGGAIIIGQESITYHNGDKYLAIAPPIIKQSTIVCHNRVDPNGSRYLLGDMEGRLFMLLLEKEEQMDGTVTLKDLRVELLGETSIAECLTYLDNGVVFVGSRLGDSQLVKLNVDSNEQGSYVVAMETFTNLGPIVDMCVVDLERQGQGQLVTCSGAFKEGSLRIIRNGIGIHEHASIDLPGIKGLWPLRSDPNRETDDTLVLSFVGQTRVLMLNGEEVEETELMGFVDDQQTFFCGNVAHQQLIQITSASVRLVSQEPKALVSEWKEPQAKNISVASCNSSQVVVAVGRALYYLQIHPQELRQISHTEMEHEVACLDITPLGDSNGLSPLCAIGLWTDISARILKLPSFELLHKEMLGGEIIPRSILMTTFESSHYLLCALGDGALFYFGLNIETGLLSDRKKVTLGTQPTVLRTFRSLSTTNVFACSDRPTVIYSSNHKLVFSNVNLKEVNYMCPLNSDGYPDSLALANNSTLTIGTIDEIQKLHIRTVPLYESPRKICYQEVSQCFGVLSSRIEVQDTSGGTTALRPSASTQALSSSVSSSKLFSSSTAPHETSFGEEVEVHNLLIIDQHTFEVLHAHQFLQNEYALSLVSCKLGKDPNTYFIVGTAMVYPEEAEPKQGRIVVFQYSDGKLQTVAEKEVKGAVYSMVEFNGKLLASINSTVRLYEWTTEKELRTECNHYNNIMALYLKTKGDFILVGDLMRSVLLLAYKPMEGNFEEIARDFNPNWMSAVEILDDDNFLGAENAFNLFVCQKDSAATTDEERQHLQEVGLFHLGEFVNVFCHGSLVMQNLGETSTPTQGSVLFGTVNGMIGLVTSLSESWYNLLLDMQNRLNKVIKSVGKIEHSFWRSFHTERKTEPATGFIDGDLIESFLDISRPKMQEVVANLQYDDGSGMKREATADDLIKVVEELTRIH
Method in brief: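 HEK293T Flp-in cells carrying an endogenous N-terminal HiBiT tag on IKZF2 were exposed to compound for 6 h at 0.1% DMSO. The dilution series was 11 doses at 3-fold, diluted from 1 mM. Nano-Glo HiBiT lytic luminescence, normalized to DMSO, gave DC50 for 50% degradation and Dmax across the concentration range, both reported in letter bins.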

[3] = target: IKZF1 (Homo sapiens (Human), UniProt Q13422+Q96SW2); experiment: In vitro IKZF1 HiBit Assay (HEK293T Flp-in-HiBiT-IKZF1 stable cell line); assay type: cell-based; conditions: HEK293T Flp-in-HiBiT-IKZF1 stable cell line, 6 hrs incubation; for DC50: read-out: IKZF1 HiBit DC50; for Dmax: HEK-293T, read-out: IKZF1 HiBit Dmax (%)
Chain of IKZF1 (Q13422 whole entry): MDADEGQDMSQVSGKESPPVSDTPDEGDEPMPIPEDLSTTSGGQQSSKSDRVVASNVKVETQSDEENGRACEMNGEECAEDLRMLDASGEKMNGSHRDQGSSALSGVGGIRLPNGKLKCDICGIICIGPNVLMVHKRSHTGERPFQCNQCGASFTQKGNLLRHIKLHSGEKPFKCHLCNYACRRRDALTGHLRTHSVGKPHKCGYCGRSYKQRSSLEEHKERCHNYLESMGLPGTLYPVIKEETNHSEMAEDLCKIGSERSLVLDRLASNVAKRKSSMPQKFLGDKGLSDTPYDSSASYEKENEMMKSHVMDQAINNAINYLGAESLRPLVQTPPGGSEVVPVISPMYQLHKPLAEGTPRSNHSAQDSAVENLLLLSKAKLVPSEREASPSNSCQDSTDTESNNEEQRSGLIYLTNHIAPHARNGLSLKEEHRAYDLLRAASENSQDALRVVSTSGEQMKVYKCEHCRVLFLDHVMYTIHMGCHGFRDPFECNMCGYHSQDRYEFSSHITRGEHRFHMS
Chain of IKZF1 (Q96SW2 whole entry): as the sequence (Q96SW2 whole entry) above
Chain of IKZF1 (Q16531 2-1140 partner): as the sequence (Q16531 2-1140 partner) above
Method in brief: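 HEK293T Flp-in cells carrying N-terminal HiBiT-tagged IKZF1 were exposed to compound (0.1% DMSO) for 6 h at 3000 cells/well. HiBiT luminescence was read after lytic LgBiT detection. DC50 and Dmax were taken from DMSO-normalized dose-response curves.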

Chain of CRBN/DDB1 (Q96SW2 whole entry, species assumed): as the sequence (Q96SW2 whole entry) above
Chain of CRBN/DDB1 (Q16531 whole entry partner, species assumed): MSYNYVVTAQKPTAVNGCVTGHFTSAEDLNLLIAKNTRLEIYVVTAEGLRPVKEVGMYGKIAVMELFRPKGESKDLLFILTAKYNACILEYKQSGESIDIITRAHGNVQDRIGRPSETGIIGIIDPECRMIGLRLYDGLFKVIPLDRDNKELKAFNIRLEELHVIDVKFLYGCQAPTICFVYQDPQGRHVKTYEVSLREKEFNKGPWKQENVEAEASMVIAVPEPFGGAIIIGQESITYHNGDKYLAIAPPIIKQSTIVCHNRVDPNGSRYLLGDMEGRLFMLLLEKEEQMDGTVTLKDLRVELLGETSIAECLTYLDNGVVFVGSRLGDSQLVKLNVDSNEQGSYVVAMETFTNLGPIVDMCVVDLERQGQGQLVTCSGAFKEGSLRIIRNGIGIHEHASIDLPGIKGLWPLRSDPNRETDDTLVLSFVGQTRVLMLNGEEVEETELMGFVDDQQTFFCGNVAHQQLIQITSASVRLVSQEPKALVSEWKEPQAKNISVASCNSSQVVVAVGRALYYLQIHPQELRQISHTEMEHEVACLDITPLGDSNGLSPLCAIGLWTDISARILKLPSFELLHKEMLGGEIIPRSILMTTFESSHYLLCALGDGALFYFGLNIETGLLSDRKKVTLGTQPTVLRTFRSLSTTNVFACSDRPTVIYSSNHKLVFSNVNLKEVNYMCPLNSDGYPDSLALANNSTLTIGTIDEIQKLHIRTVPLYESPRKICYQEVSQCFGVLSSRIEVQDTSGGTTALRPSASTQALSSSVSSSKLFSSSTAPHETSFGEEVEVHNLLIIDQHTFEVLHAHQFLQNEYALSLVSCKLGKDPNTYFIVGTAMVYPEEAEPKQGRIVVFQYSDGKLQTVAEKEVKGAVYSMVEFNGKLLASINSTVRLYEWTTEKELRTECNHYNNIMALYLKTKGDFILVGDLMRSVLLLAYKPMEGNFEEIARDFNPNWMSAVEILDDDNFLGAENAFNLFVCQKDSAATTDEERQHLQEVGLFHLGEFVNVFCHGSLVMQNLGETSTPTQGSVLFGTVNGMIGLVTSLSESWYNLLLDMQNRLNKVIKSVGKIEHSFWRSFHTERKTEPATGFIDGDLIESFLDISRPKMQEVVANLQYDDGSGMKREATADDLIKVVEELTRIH

`Cn1ccc2c(CN3CCCC3CO)cc(-c3ccc4c(c3)CN(C3CCC(=O)NC3=O)C4=O)nc21` (stereo not shown) [Example 101, 3-(5-(4-((2-(hydroxymethyl)pyrrolidin-1-yl)methyl)-1-methyl-1H-pyrrolo[2,3-b]pyridin-6-yl)-1-oxoisoindolin-2-yl) piperidine-2,6-dione] showed an IC50 [1] of 100 to 500 nM, a DC50 [2] of 1 to 10 nM and a Dmax [2] greater than 80%. The DC50 [3] was greater than 10000 nM and the Dmax [3] was less than 20%.
In the case of `COC1CCN(Cc2cc(-c3ccc4c(c3)CN(C3CCC(=O)NC3=O)C4=O)nc3c2ccn3C)CC1` (stereo not shown) [Example 102, 3-(5-(4-((4-methoxypiperidin-1-yl)methyl)-1-methyl-1H-pyrrolo[2,3-b]pyridin-6-yl)-1-oxoisoindolin-2-yl) piperidine-2,6-dione], the IC50 [1] is reported as 100 to 500 nM, the DC50 [2] is reported as less than 1 nM and the Dmax [2] is reported as greater than 80%. For the same molecule, the DC50 [3] was 10 to 100 nM and the Dmax [3] was 20 to 40%.
With `Cn1ccc2c(CN3CCC4(CCCC4)CC3)cc(-c3ccc4c(c3)CN(C3CCC(=O)NC3=O)C4=O)nc21` (stereo not shown) [Example 103, 3-(5-(4-((8-azaspiro[4.5]decan-8-yl)methyl)-1-methyl-1H-pyrrolo[2,3-b]pyridin-6-yl)-1-oxoisoindolin-2-yl) piperidine-2,6-dio] the IC50 [1] was 100 to 500 nM, the DC50 [2] was 1 to 10 nM and the Dmax [2] was greater than 80%. It also gave a DC50 [3] of 10 to 100 nM and a Dmax [3] of 20 to 40%.
`O=C1CCC(N2Cc3cc(-c4cc(CN5CCCC5)c5ncccc5n4)ccc3C2=O)C(=O)N1` (stereo not shown) [Example 104, 3-(1-oxo-5-(4-(pyrrolidin-1-ylmethyl)-1,5-naphthyridin-2-yl)isoindolin-2-yl) piperidine-2,6-dione] showed an IC50 [1] of 500 to 1000 nM, a DC50 [2] of 1 to 10 nM and a Dmax [2] greater than 80%. For the same molecule, the DC50 [3] was greater than 10000 nM and the Dmax [3] was 20 to 40%.
For `COCC1CCCN1Cc1cc(-c2ccc3c(c2)CN(C2CCC(=O)NC2=O)C3=O)nc2c1ccn2C` (stereo not shown) [Example 106, 3-(5-(4-((2-(methoxymethyl)pyrrolidin-1-yl)methyl)-1-methyl-1H-pyrrolo[2,3-b]pyridin-6-yl)-1-oxoisoindolin-2-yl) piperidine-2,6-dione], the IC50 [1] was 100 to 500 nM, the DC50 [2] was 1 to 10 nM and the Dmax [2] was greater than 80%. It also gave a DC50 [3] greater than 10000 nM and a Dmax [3] of less than 20%.
With `Cn1ccc2c(CN3CCn4nccc4C3)cc(-c3ccc4c(c3)CN(C3CCC(=O)NC3=O)C4=O)nc21` (stereo not shown) [Example 107, 3-(5-(4-((6,7-dihydropyrazolo[1,5-a]pyrazin-5 (4H)-yl)methyl)-1-methyl-1H-pyrrolo[2,3-b]pyridin-6-yl)-1-oxoisoindolin-2-yl) piperidine-2,6-dione] the IC50 [1] was 100 to 500 nM, the DC50 [2] was 10 to 100 nM and the Dmax [2] was 40 to 60%. For the same molecule, the DC50 [3] was greater than 10000 nM and the Dmax [3] was less than 20%.
With `C[C@@H]1CC[C@@H](C)N1Cc1cc(-c2ccc3c(c2)CN(C2CCC(=O)NC2=O)C3=O)nc2c1ccn2C` (stereo partly drawn) [Example 108, 3-(5-(4-(((2R,5R)-2,5-dimethylpyrrolidin-1-yl)methyl)-1-methyl-1H-pyrrolo[2,3-b]pyridin-6-yl)-1-oxoisoindolin-2-yl) piperidine-2,6-dione] the IC50 [1] was 500 to 1000 nM, the DC50 [2] was 1 to 10 nM and the Dmax [2] was 60 to 80%. For the same molecule, the DC50 [3] was greater than 10000 nM and the Dmax [3] was less than 20%.
`COCC1CCN(Cc2cc(-c3ccc4c(c3)CN(C3CCC(=O)NC3=O)C4=O)nc3c2ccn3C)C1` (stereo not shown) [Example 109, 3-(5-(4-((3-(methoxymethyl)pyrrolidin-1-yl)methyl)-1-methyl-1H-pyrrolo[2,3-b]pyridin-6-yl)-1-oxoisoindolin-2-yl) piperidine-2,6-dione] gave an IC50 [1] of 100 to 500 nM, a DC50 [2] of less than 1 nM and a Dmax [2] greater than 80%. It also gave a DC50 [3] of 1 to 10 nM and a Dmax [3] of 20 to 40%.
Work on `Cn1ccc2nc(-c3ccc4c(c3)CN(C3CCC(=O)NC3=O)C4=O)cc(CN3CCC3)c21` (stereo not shown) [Example 110, 3-(5-(7-(azetidin-1-ylmethyl)-1-methyl-1H-pyrrolo[3,2-b]pyridin-5-yl)-1-oxoisoindolin-2-yl) piperidine-2,6-dione] yielded an IC50 [1] of 500 to 1000 nM, a DC50 [2] of 1 to 10 nM and a Dmax [2] greater than 80%. The DC50 [3] was greater than 10000 nM and the Dmax [3] was less than 20%.
`O=C1CCC(N2Cc3cc(-c4cc(CN5CC(O)C5)c5cc[nH]c5n4)ccc3C2=O)C(=O)N1` (stereo not shown) [Example 111, 3-(5-(4-((3-hydroxyazetidin-1-yl)methyl)-1H-pyrrolo[2,3-b]pyridin-6-yl)-1-oxoisoindolin-2-yl) piperidine-2,6-dione] gave an IC50 [1] of 100 to 500 nM, a DC50 [2] of 10 to 100 nM and a Dmax [2] of 60 to 80%. It also gave a DC50 [3] greater than 10000 nM and a Dmax [3] of less than 20%.
With `Cn1ccc2c(CN3CC4(CCC4)C3)cc(-c3ccc4c(c3)CN(C3CCC(=O)NC3=O)C4=O)nc21` (stereo not shown) [Example 112, 3-(5-(4-((2-azaspiro[3.3]heptan-2-yl)methyl)-1-methyl-1H-pyrrolo[2,3-b]pyridin-6-yl)-1-oxoisoindolin-2-yl) piperidine-2,6-dione] the IC50 [1] was 100 to 500 nM, the DC50 [2] was less than 1 nM and the Dmax [2] was greater than 80%. It also gave a DC50 [3] of 10 to 100 nM and a Dmax [3] of 20 to 40%.
`Cn1ccc2c(CN3CCCC3(C)C)cc(-c3ccc4c(c3)CN(C3CCC(=O)NC3=O)C4=O)nc21` (stereo not shown) [Example 113, 3-(5-(4-((2,2-dimethylpyrrolidin-1-yl)methyl)-1-methyl-1H-pyrrolo[2,3-b]pyridin-6-yl)-1-oxoisoindolin-2-yl) piperidine-2,6-dione] was tested, and the IC50 [1] was 1000 to 5000 nM, the DC50 [2] was less than 1 nM and the Dmax [2] was 60 to 80%. For the same molecule, the DC50 [3] was 10 to 100 nM and the Dmax [3] was 20 to 40%.
`Cn1ccc2c(N3CCCC3)cc(-c3ccc4c(c3)CN(C3CCC(=O)NC3=O)C4=O)nc21` (stereo not shown) [Example 114, 3-(5-(1-methyl-4-(pyrrolidin-1-yl)-1H-pyrrolo[2,3-b]pyridin-6-yl)-1-oxoisoindolin-2-yl) piperidine-2,6-dione] was tested, and the IC50 [1] was 1000 to 5000 nM, the DC50 [2] was 10 to 100 nM and the Dmax [2] was 20 to 40%. It also gave a DC50 [3] greater than 10000 nM and a Dmax [3] of less than 20%.
Work on `Cn1ccc2c(CN3CCC(n4ccnc4)CC3)cc(-c3ccc4c(c3)CN(C3CCC(=O)NC3=O)C4=O)nc21` (stereo not shown) [Example 115, 3-(5-(4-((4-(1HIimidazol-1-yl)piperidin-1-yl)methyl)-1-methyl-1H-pyrrolo[2,3-b]pyridin-6-yl)-1-oxoisoindolin-2-yl) piperidine-2,6-dione] yielded an IC50 [1] of 500 to 1000 nM, a DC50 [2] of 10 to 100 nM and a Dmax [2] of 60 to 80%. The DC50 [3] was greater than 10000 nM and the Dmax [3] was less than 20%.
`COCCn1ccc2c(CN3CCCC3)cc(-c3ccc4c(c3)CN(C3CCC(=O)NC3=O)C4=O)nc21` (stereo not shown) [Example 118, 3-(5-(1-(2-methoxyethyl)-4-(pyrrolidin-1-ylmethyl)-1H-pyrrolo[2,3-b]pyridin-6-yl)-1-oxoisoindolin-2-yl) piperidine-2,6-dione] gave an IC50 [1] of 500 to 1000 nM, a DC50 [2] of 1 to 10 nM and a Dmax [2] of 40 to 60%. For the same molecule, the DC50 [3] was greater than 10000 nM and the Dmax [3] was less than 20%.
For `O=C1CCC(N2Cc3cc(-c4cc(CN5CCC(O)C5)c5cc[nH]c5n4)ccc3C2=O)C(=O)N1` (stereo not shown) [Example 120, 3-(5-(4-((3-hydroxypyrrolidin-1-yl)methyl)-1H-pyrrolo[2,3-b]pyridin-6-yl)-1-oxoisoindolin-2-yl) piperidine-2,6-dione], the IC50 [1] was 100 to 500 nM, the DC50 [2] was 10 to 100 nM and the Dmax [2] was greater than 80%. The DC50 [3] was 100 to 1000 nM and the Dmax [3] was 20 to 40%.
`O=C1CCC(N2Cc3cc(-c4cc(CN5CCCC5)c5cc[nH]c5n4)c(F)cc3C2=O)C(=O)N1` (stereo not shown) [Example 122, 3-(6-fluoro-1-oxo-5-(4-(pyrrolidin-1-ylmethyl)-1H-pyrrolo[2,3-b]pyridin-6-yl)isoindolin-2-yl) piperidine-2,6-dione] gave an IC50 [1] of 1000 to 5000 nM, a DC50 [2] of 100 to 1000 nM and a Dmax [2] of 20 to 40%. It also gave a DC50 [3] of 1 to 10 nM and a Dmax [3] of 20 to 40%.
